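Growth conditions: 96-well plates. Treatment: test compound, 48 hours, 5 concentrations. Analysis: linear interpolation between bracketing concentrations; unreached endpoints set to highest concentration. GI50 is the concentration that inhibits growth by half. TGI is the concentration that stops growth completely.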
Legend:
Experiment in all cases: NCI-60 cell line screen, 48 h
UACC-257 melanoma = tested on: UACC-257 melanoma
SF-295 CNS = tested on: SF-295 CNS
HOP-92 NSCLC = tested on: HOP-92 NSCLC
TK-10 renal = tested on: TK-10 renal
786-0 renal = tested on: 786-0 renal
PC-3 prostate = tested on: PC-3 prostate
K-562 leukemia = tested on: K-562 leukemia
NCI-H23 lung = tested on: NCI-H23 lung
KM12 colon = tested on: KM12 colon

SMILES	TGI (UACC-257 melanoma)	TGI (SF-295 CNS)	TGI (HOP-92 NSCLC)	TGI (TK-10 renal)	TGI (786-0 renal)	TGI (PC-3 prostate)	TGI (K-562 leukemia)	TGI (NCI-H23 lung)	TGI (KM12 colon)	GI50 (KM12 colon)	GI50 (SF-295 CNS)	GI50 (K-562 leukemia)	GI50 (NCI-H23 lung)
O=C(O)C(=O)/C=C(\O)c1ccc(Br)cc1	> 100 µM	> 100 µM	> 100 µM	> 100 µM	> 100 µM	> 100 µM	> 100 µM	> 100 µM	> 100 µM	–	–	–	–
Cc1nc2ccccc2c(/C=C/c2ccc(Cl)cc2)c1C(=O)/C=C/c1ccccc1	–	–	–	–	–	–	–	–	3.04 µM	1.56 µM	–	–	–
CCOc1ccc2c(c1)c(=O)c1c(NCCN(CC)CC)ccc3nnn2c31	> 59.6 µM	> 56.4 µM	> 100 µM	37.9 µM	> 49 µM	49.7 µM	> 66.2 µM	38.6 µM	37.1 µM	–	–	–	–
[N-]=[N+]=C(C(=O)N1CCCC1=O)S(=O)(=O)c1ccccc1	> 100 µM	> 100 µM	–	> 100 µM	> 100 µM	> 100 µM	> 100 µM	> 100 µM	> 100 µM	–	–	–	–
O=C1C(=Cc2ccc(Cl)c(Cl)c2)C([O-])=C([P+](c2ccccc2)(c2ccccc2)c2ccccc2)C([O-])=C1[P+](c1ccccc1)(c1ccccc1)c1ccccc1	5.8 µM	6.74 µM	4.86 µM	5.6 µM	4.18 µM	3.79 µM	8.33 µM	10 µM	4.66 µM	–	–	–	–
COc1ccc(Nc2nc(N)c(C(=O)c3cccs3)s2)cc1	31.3 µM	> 100 µM	89.3 µM	24.3 µM	> 56.6 µM	> 60.2 µM	> 100 µM	> 100 µM	15.9 µM	–	–	–	–
CC1=C(C)C(=O)C(C2=CC(=O)C=CC2=O)=C(C2=CC(=O)C=CC2=O)C1=O	> 100 µM	> 100 µM	> 78.9 µM	> 100 µM	> 100 µM	> 100 µM	–	> 100 µM	> 100 µM	–	–	–	–
N#CC(C#N)=C1C(=O)NC(N)=C1C#N	> 100 µM	> 100 µM	> 100 µM	> 100 µM	> 100 µM	> 100 µM	> 100 µM	> 100 µM	> 100 µM	–	–	–	–
OC1C[C@H](c2ccccc2)C2(C(O)c3ccccc3C2O)[C@@H](c2ccccc2)C1 (stereo partly drawn)	> 100 µM	> 100 µM	> 100 µM	> 100 µM	> 100 µM	> 100 µM	> 100 µM	> 100 µM	> 100 µM	–	–	–	–
[N-]=[N+]=Nc1c([N+](=O)[O-])c(=O)n2c3c(cccc13)CCC2	21.5 µM	> 100 µM	30 µM	34.3 µM	30.9 µM	30.7 µM	3.84 µM	43.6 µM	34.8 µM	–	–	–	–
S=c1[nH]c2ccc(I)cc2c(=S)n1Cc1ccccc1	7.34 µM	11.5 µM	9.34 µM	30.8 µM	21.4 µM	15.5 µM	14.6 µM	9.61 µM	50.7 µM	–	–	–	–
CNc1ncnc2c1cnn2Cc1cn(COCC(O)CO)nn1 (stereo not drawn)	> 100 µM	> 100 µM	> 100 µM	> 100 µM	> 100 µM	> 100 µM	–	> 100 µM	> 100 µM	–	–	–	–
CCOC(=O)N1CCC(=C2c3ccc(Cl)cc3CCc3cccnc32)CC1	29.6 µM	–	24.2 µM	29.3 µM	33.4 µM	25.7 µM	49.7 µM	35.6 µM	24.3 µM	–	–	–	–
NC1CC=C(COC(=O)C(O)(c2ccccc2)C2CC2)CC1 (stereo not drawn)	> 100 µM	> 100 µM	–	> 100 µM	> 100 µM	> 100 µM	–	> 100 µM	> 100 µM	–	–	–	–
CCN1CCC(O)(/C=C/c2ccc(C(C)C)cc2)C(C(=O)/C=C/c2ccc(C(C)C)cc2)C1 (stereo not drawn)	19.4 µM	9.36 µM	3.69 µM	6.16 µM	3.4 µM	11.4 µM	> 29 µM	5.88 µM	4.87 µM	–	–	–	–
O=C(CSc1nc2ccccc2c(=O)n1-c1ccccc1)N=Nc1c(O)[nH]c2ccc(F)cc12	6 µM	–	4.17 µM	–	5.05 µM	3.77 µM	3.35 µM	9.21 µM	32.6 µM	–	–	–	–
CCCCCCCCCCCCCC(=O)N(CCCCCCCCC)CC(O)C(O)C(OC1OC(CO)C(O)C(O)C1O)C(O)CO (stereo not drawn)	32.1 µM	41.2 µM	34 µM	33.7 µM	32 µM	54.6 µM	39.4 µM	41.5 µM	37.1 µM	–	–	–	–
CCOC(=O)C(NC(=O)OC(C)(C)C)C(=O)OCC	> 100 µM	–	> 100 µM	> 100 µM	> 100 µM	> 100 µM	> 100 µM	> 100 µM	> 100 µM	–	–	–	–
Cc1cn(S(=O)(=O)c2ccccc2)c2c(OCc3ccccc3)cc(NS(C)(=O)=O)cc12	> 78 µM	> 100 µM	> 89.8 µM	> 100 µM	> 100 µM	29 µM	> 100 µM	> 100 µM	> 100 µM	–	–	–	–
NC(N)=NCCCC(NC(=O)OCCCCn1ccc(N)nc1=O)C(=O)O (stereo not drawn)	> 100 µM	> 100 µM	> 100 µM	> 100 µM	> 100 µM	> 100 µM	> 100 µM	> 100 µM	> 100 µM	–	–	–	–
O=C(O)CCC(NC(=O)c1ccc(Nc2nc3cc(C(F)(F)F)ccc3nc2C(=O)O)cc1)C(=O)O (stereo not drawn)	> 100 µM	> 100 µM	> 100 µM	> 100 µM	> 100 µM	> 100 µM	> 100 µM	> 100 µM	> 100 µM	–	–	–	–
CCC(NC1=NCCO1)c1cccs1 (stereo not drawn)	35.8 µM	28.4 µM	32.6 µM	29.9 µM	28.7 µM	33.9 µM	47.4 µM	31.6 µM	36 µM	–	–	–	–
Brc1ccc2c(-c3csc(-c4c[nH]c5ccccc45)n3)c[nH]c2c1	50.7 µM	29.5 µM	33.3 µM	27.5 µM	33.8 µM	28.9 µM	37.5 µM	28.2 µM	34.7 µM	–	14.6 µM	18.8 µM	14.5 µM
CC(=O)Nc1ccccc1NC1CC(C)N(c2ccccc2)N1C(C)=O (stereo not drawn)	> 10 µM	> 10 µM	> 10 µM	> 10 µM	> 10 µM	> 10 µM	> 10 µM	> 10 µM	> 10 µM	–	–	–	–

— PubChem BioAssay (NCI)
